Source: patent publication US11214805B2, “Targeted nanocarriers for the administration of immunosuppressive agents” (MUSC FOUNDATION FOR RESEARCH DEVELOPMENT, priority 2014, dated 2022)

Columns and labels:
MHC I = experiment: Western blot of MHC I in lysates of HUVEC treated with pro-inflammatory cytokine cocktail; type: cell-based, Human; settings: IL-1β, INFγ, TNFα cocktail; 10 or 100 ng/mL
Procedure: Cells were then lysed using mammalian protein extraction reagent (Pierce, Ill.) supplemented with Halt Protease and Phosphatase Inhibitor Cocktails. Lysates were centrifuged at 10,000 rpm for 15 minutes. All western blot reagents were purchased from Bio-Rad (CA) unless specified. The protein concentration of each lysate was determined via Bradford calorimetric Assay (Thermo Scientific, PA; 232225), and 1.6 μg of protein from each whole cell lysate was added to a 4-20% precast gel and subjected to SDS-page electrophoresis. Protein was transferred to a PVDF membrane by semi-dry transfer, where it was stained with anti-MHC class I antibody (W6) and blocked overnight with TBS-T (Tris-Buffered Saline-Tween 20) containing 5% nonfat dry milk and 0.5% BSA. An appropriate HRP-conjugated secondary antibody was added to fresh block solution at a 1:1000 dilution to incubate for 1 hour at room temperature. The protein band was then detected by enhanced chemiluminescence (ECL).

[1] = system: transplanted tracheas (chronic rejection); settings: graft stored 4 hrs at 4° C. in UW solution with additive; harvested 28 days after transplantation
Source text: Twenty eight days later transplanted tracheas were harvested and assessed for the degree of chronic rejection.

Q: Which “level of MHC I expression in HUVEC” value (MHC I) does the source give for CO[C@H]1C[C@@H]2CC[C@@H](C)[C@@](O)(O2)C(=O)C(=O)N2CCCC[C@H]2C(=O)O[C@H]([C@H](C)C[C@@H]2CC[C@@H](O)[C@H](OC)C2)CC(=O)[C@H](C)/C=C(\C)[C@@H](O)[C@@H](OC)C(=O)[C@H](C)C[C@H](C)/C=C/C=C/C=C/1C [free rapamycin, rapamycin] here?
A: The value was “able to down regulate”.

Q: What about the “degree of chronic rejection (fibrosis, inflammation, epithelium) as compared to UW alone” value [1] of the same compound?
A: The value was “reduced fibrosis, inflammation and preserved normal pseudo stratified respiratory epithelium”.
